pKd: −log10 of the molar value.
Tests used:
[1] = target: T1, androgen receptor (Homo sapiens, UniProt P10275); test: Assay for binding affinity to androgen receptor ([3H]methyltrienolone radioligand, cell cytosol); settings: binding to the androgen receptor, Table 3
T1 sequence (P10275 1-920 T878A): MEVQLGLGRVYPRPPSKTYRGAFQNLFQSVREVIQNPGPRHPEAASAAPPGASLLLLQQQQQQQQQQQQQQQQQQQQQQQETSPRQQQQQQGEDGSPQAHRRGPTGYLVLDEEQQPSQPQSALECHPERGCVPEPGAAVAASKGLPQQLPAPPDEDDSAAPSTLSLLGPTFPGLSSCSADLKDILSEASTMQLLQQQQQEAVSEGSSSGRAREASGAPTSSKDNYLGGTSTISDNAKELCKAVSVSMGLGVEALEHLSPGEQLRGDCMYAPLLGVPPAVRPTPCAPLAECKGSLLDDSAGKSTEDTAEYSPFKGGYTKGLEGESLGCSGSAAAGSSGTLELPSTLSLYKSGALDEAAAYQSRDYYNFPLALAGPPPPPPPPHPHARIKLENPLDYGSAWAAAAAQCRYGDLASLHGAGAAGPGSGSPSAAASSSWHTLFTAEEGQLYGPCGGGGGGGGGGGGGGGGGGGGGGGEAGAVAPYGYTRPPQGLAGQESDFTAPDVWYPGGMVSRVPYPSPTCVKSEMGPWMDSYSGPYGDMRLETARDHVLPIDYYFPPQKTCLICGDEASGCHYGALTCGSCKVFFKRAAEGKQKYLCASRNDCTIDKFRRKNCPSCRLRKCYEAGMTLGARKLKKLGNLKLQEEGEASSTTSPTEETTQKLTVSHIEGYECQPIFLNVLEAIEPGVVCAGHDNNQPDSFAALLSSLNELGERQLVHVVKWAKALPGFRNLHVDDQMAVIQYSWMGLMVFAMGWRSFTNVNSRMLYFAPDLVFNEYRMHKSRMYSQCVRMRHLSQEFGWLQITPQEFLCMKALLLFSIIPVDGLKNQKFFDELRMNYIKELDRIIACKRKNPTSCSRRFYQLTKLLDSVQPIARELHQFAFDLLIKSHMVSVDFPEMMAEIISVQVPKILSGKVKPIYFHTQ
Procedure: Fractions of cell cytosol ([…]) were incubated for 24 hr at 4° C. with 1 nM [^3H]methyltrienolone in the absence or presence of the test compound in a buffer containing 25 mM Hepes-Tris (pH 7.4), 1 mM EDTA, 10 mM Na2MoO4, 2 mM DTT, 5 μM triamcinolone acetonide, and 10% glycerol. Nonspecific binding was determined in the presence of […] testosterone. Following incubation, the samples were filtered rapidly under vacuum through glass fiber filters (GF/B, Packard) presoaked with 0.3% PEI and rinsed several times with ice-cold 50 mM Tris-HCl using a 96-sample cell harvester (Unifilter, Packard). The filters were dried then counted for radioactivity in a scintillation counter (Topcount, Packard) using a scintillation cocktail (Microscint 0, Packard). The results are expressed as a percent inhibition of the control radioligand specific binding. The standard reference compound is testosterone, which is tested in each experiment at several concentrations to obtain a competition curve from which its IC50 is calculated.

[2] = system: T-Rex 293 cell line SC3 cells having increased expression of androgen receptor protein due to exposure to doxycycline; test: Cellular growth inhibition assay, T-Rex 293 SC3 cells with doxycycline (CellTiter-Glo, 72 hours); assay type: cell-based; settings: 72 h, T-Rex 293 SC3 cells with increased androgen receptor expression due to doxycycline (10 ng/mL)
Outline: (§1)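 Doxycycline (10 ng/mL) was either included or omitted to toggle wild-type androgen receptor expression in SC3 cells, a T-Rex 293 clone, grown in stripped-serum, phenol red-free medium. After 72 hours with compound, viable cells were quantified by CellTiter-Glo 2.0.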

[3] = system: T-Rex 293 cell line SC3 cells lacking increased expression of androgen receptor protein; test: Cellular growth inhibition assay, T-Rex 293 SC3 cells without doxycycline (CellTiter-Glo, 72 hours); assay type: cell-based; settings: T-Rex 293 cell line SC3 cells not exposed to doxycycline (lacking increased androgen receptor expression)
Outline: as §1

[4] = system: VCaP cells; test: Cellular growth inhibition assay for VCaP cells (CellTiter-Glo, 72 hours); assay type: cell-based, human; settings: Homo sapiens, VCaP, 72 h
Outline: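 Luminescent viability signal after 72 h of compound exposure gave GI50 values by four-parameter nonlinear regression. Compounds were added in 0.5% DMSO to cells plated 24 h earlier at 5000/well in DMEM containing 10% FBS.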

[5] = target: T2, BRD4-BD1 (Homo sapiens, UniProt O60885); test: bromoKdELECT assay for binding affinity to BRD4-BD1; settings: binding to BRD4-BD1, Table 4
T2 construct: made in house; host or cells: T7 phage grown in an E. coli host derived from the BL21 strain
Procedure: (§2) Compounds were tested using a bromoKdELECT assay. T7 phage strains displaying bromodomains were grown in parallel in 24-well blocks in an E. coli host derived from the BL21 strain. E. coli were grown to log-phase and infected with T7 phage from a frozen stock (multiplicity of infection=0.4) and incubated with shaking at 32° C. until lysis (90-150 minutes). The lysates were centrifuged (5,000×g) and filtered (0.2 μm) to remove cell debris. Streptavidin-coated magnetic beads were treated with biotinylated small molecule or acetylated peptide ligands for 30 minutes at room temperature to generate affinity resins for bromodomain assays. The liganded beads were blocked with excess biotin and washed with blocking buffer (SeaBlock (Pierce), 1% BSA, 0.05% Tween 20, 1 mM DTT) to remove unbound ligand and to reduce nonspecific phage binding. Binding reactions were assembled by combining bromodomains, liganded affinity beads, and test compounds in 1× binding buffer (17% SeaBlock, 0.33×PBS, 0.04% Tween 20, 0.02% BSA, 0.004% Sodium azide, 7.4 mM DTT). Test compounds were prepared as 1000× stocks in 100% DMSO. Kds were determined using an 11-point 3-fold compound dilution series with one DMSO control point. All compounds for Kd measurements are distributed by acoustic transfer (non-contact dispensing) in 100% DMSO. The compounds were then diluted directly into the assays such that the final concentration of DMSO was 0.09%. All reactions performed in polypropylene 384-well plates. Each was a final volume of 0.02 ml. The assay plates were incubated at room temperature with shaking for 1 hour and the affinity beads were washed with wash buffer (1×PBS, 0.05% Tween 20). The beads were then resuspended in elution buffer (1×PBS, 0.05% Tween […] non-biotinylated affinity ligand) and incubated at room temperature with shaking for 30 minutes. The bromodomain concentration in the eluates was measured by qPCR.

[6] = target: T3, BRD4-BD2 (Homo sapiens, UniProt O60885); test: bromoKdELECT assay for binding affinity to BRD4-BD2; settings: binding to BRD4-BD2, Table 5
T3 construct: made in house; host or cells: T7 phage grown in an E. coli host derived from the BL21 strain
Procedure: as §2, with “[…])” for “μm)”

SMILES | pKd [1] | GI50 [4] | pKd [5] | pKd [6] | GI50 [2] | GI50 ([3]; 72 h) | GI50 [3]
CCNC(=O)C[C@@H]1N=C(c2ccc(OCCOCCOCCOC3CCN(c4ccc(C(=O)N[C@H]5CC[C@H](Oc6ccc(C#N)c(Cl)c6)CC5)nn4)CC3)cc2)c2c(sc(C)c2C)-n2c(C)nnc21 [I-9] | > 7.30 | < 500 nM |  |  | < 500 nM | 500 to 1500 nM | 
CCNC(=O)C[C@@H]1N=C(c2ccc(N3CCC(CN4CC(N(C)c5ccc(C(=O)N[C@H]6CC[C@H](Oc7ccc(C#N)c(Cl)c7)CC6)nn5)C4)CC3)cc2)c2c(sc(C)c2C)-n2c(C)nnc21 [I-68] | 6.30 to 7.30 | 500 to 1500 nM |  |  | > 3000 nM | > 3000 nM | 

Further lines, with some results ahead:

pKd [1] | GI50 [4] | pKd [5] | pKd [6] | SMILES | GI50 [2] | GI50 ([3]; 72 h) | GI50 [3]
> 7.30 | < 500 nM |  |  | CCNC(=O)C[C@@H]1N=C(c2ccc(N3CCC(N(C)C4CN(c5ccc(C(=O)N[C@H]6CC[C@H](Oc7ccc(C#N)c(Cl)c7)CC6)nn5)C4)CC3)cc2)c2c(sc(C)c2C)-n2c(C)nnc21 [I-63] | < 500 nM | 500 to 1500 nM | 
 | < 500 nM | > 7.30 |  | Cc1sc2c(c1C)C(c1ccc(Cl)cc1)=N[C@@H](CC(=O)NCCOCCOCCOCCOCCOC1CCN(c3ccc(C(=O)N[C@H]4CC[C@H](Oc5ccc(C#N)c(Cl)c5)CC4)nn3)CC1)c1nnc(C)n1-2 [I-3, N-[4-(3-chloro-4-cyano-phenoxy)cyclohexyl]-6-[4-[2-[2-[2-[2-[2-[[2-[7-(4-chlorophenyl)-4,5,13-trimethyl-3-thia-1,8,11,12-tetrazatricyclo[8.3.0.0^2,6]trideca-2(6),4,7,10,12-pentaen-9-yl]acetyl]amino]ethoxy]ethoxy]ethoxy]ethoxy]ethoxy]-1-piperidyl]pyridazine-3-carboxamide] | < 500 nM | 1500 to 3000 nM | 
 |  | 6.30 to 7.30 | > 7.30 | CCNC(=O)C[C@@H]1N=C(c2ccc(CCCC3CCN(c4ccc(C(=O)N[C@H]5CC[C@H](Oc6ccc(C#N)c(Cl)c6)CC5)nn4)CC3)cc2)c2c(sc(C)c2C)-n2c(C)nnc21 [I-51] | < 500 nM |  | 500 to 1500 nM

Reference: US20260109707A1, “HETEROBIFUNCTIONAL COMPOUNDS AND METHODS OF TREATING DISEASE” (Halda Therapeutics OpCo. Inc., priority 2022, published 2026)
